# Test results as given in the OPERA property sets (Mansouri et al. 2018).
# Conditions: not given
SMILES,log10 vapour pressure (mmHg),melting point [°C],boiling point [°C],log10 Koc (L/kg),ready biodegradability,log10 Henry constant (atm·m³/mol),log10 Koa,log10 biodegradation half-life (days)
c1ccc2c(c1)Cc1cc3ccccc3cc1-2,-7.26,212,–,–,–,–,–,–
CCOC(=O)CO,–,–,160,–,–,–,–,–
O=C(O)c1ccccc1Oc1ccccc1,–,113,355,–,–,–,–,–
C#CC(C)(C)NC(=O)c1ccc(C)cc1,–,–,–,1.76,–,–,–,–
Cc1ccc2ccc(=O)oc2c1,–,128,–,–,–,–,–,–
CC[Si](O)(CC)CC,–,–,154,–,–,–,–,–
C=CCCCCCCCCCCCCC,-2.34,-2.8,268,–,–,–,–,–
CC(=O)Nc1cccnc1,–,133,326,–,–,–,–,–
NS(=O)(=O)c1cc(Cl)c(Cl)c(S(N)(=O)=O)c1,–,229,–,–,–,–,–,–
CCCCCCCCCCCC[C@H](C)O,–,34,284,–,–,–,–,–
O=C(S)c1ccccc1,–,24,–,–,–,–,–,–
COc1ccc2[nH]cc(CCNC(C)=O)c2c1,–,117,–,–,–,–,–,–
CN(C)CC#N,–,–,138,–,–,–,–,–
CCCCCBr,1.1,-95,130,–,not readily biodegradable,–,–,–
Nc1nc(N)c2[nH]cnc2n1,–,302,–,–,–,–,–,–
[N-]=[N+]=NC(=O)c1ccccc1,–,32,–,–,–,–,–,–
CC(C)CC1CCCCC1,0.684,-95,171,–,–,–,–,–
CCC(Br)=CBr,–,-49.5,150,–,–,–,–,–
CCCCCCCCCCCCCCCCC(=O)O,-7.21,61.3,364,–,–,–,–,–
CN1c2ccccc2Sc2ccc(CC(=O)O)cc21,–,144,–,–,–,–,–,–
CCCCCC=CC=O,–,–,–,–,–,-4.13,–,–
N#CCCCBr,–,–,206,–,–,–,–,–
CC(C)N(C(=O)SCC(Cl)=CCl)C(C)C,-3.82,25,–,3.28,–,–,–,–
N#CNC(=N)N,–,211,–,–,not readily biodegradable,–,–,–

SMILES,log10 vapour pressure (mmHg),melting point [°C],boiling point [°C],log10 Koc (L/kg),ready biodegradability,log10 Henry constant (atm·m³/mol),log10 Koa,log10 biodegradation half-life (days)
O=C(O)c1c(Cl)c(Cl)c(Cl)c(Cl)c1Cl,–,209,–,–,–,–,–,–
ClC=CCc1ccccc1,–,–,211,–,–,–,–,–
Sc1ccc2ccccc2c1,–,81,288,–,not readily biodegradable,–,–,–
CCS(=O)(=O)C(C)(C)S(=O)(=O)CC,–,126,300,–,–,–,–,–
O=C1c2ccccc2C(=O)C1c1ccc(Cl)cc1,–,146,–,–,–,–,–,–
Fc1cccc(F)c1,1.92,-69,82.6,–,–,–,–,–
CC1CCC(C(C)C)C(O)C1 (stereo unspecified),-1.08,39,–,–,not readily biodegradable,–,–,–
Cc1cc(Br)cc(Br)c1O,–,58,–,–,–,–,–,–
Oc1c(Cl)c(O)c(Cl)c(O)c1Cl,–,136,–,–,–,–,–,–
C=CCCCC(=O)O,–,-37,203,–,–,–,–,–
c1ccc(-c2nc3ccccc3s2)cc1,–,115,371,–,–,–,–,–
C=CCOC(=O)c1ccco1,–,–,208,–,–,–,–,–
Cc1cc(C)oc(=O)c1,–,51.5,245,–,–,–,–,–
CCCC,3.26,-138,–,–,readily biodegradable,–,1.53,–
CC(=O)CC(C)(C)C,–,-64,126,–,–,–,–,–
C=CC(C)(CCC=C(C)C)OC(C)=O (stereo unspecified),-0.955,–,220,–,–,–,–,–
C[C@H]1O[C@@H](n2cc(F)c(=O)[nH]c2=O)[C@H](O)[C@@H]1O,–,190,–,–,–,–,–,–
CC(O)CC(F)(F)F (stereo unspecified),–,–,99.8,–,–,–,–,–
CCC(C)c1cc([N+](=O)[O-])cc([N+](=O)[O-])c1OC(C)=O (stereo unspecified),-3.22,26,–,–,–,–,–,–
CC(=O)OCCl,–,–,116,–,–,–,–,–
Cc1ccccc1-n1c(C)nc2ccccc2c1=O,–,120,–,–,–,–,–,–
Cc1ccc2cc3ccccc3cc2c1,-5.27,209,–,–,–,–,–,–
CCN1CCCC1,–,–,104,–,–,–,–,–
C=CCCCCC(=O)O,–,-6.5,226,–,–,–,–,–

SMILES,log10 vapour pressure (mmHg),melting point [°C],boiling point [°C],log10 Koc (L/kg),ready biodegradability,log10 Henry constant (atm·m³/mol),log10 Koa,log10 biodegradation half-life (days)
CC[Si](Cl)(Cl)CC,–,-96.5,–,–,–,–,–,–
CC#CC(=O)OCC,–,–,163,–,–,–,–,–
Cc1ccc(C(=O)c2ccccc2)cc1C,–,47.5,341,–,–,–,–,–
CC1=NOC(=O)/C1=N\Nc1ccccc1Cl,–,168,–,–,–,–,–,–
CCOC(=O)CN,–,–,149,–,–,–,–,–
CCc1cc2ccccc2c2ccccc12,–,62.5,–,–,–,–,–,–
CC(Oc1ccc(Oc2ccc(Cl)cc2Cl)cc1)C(=O)O (stereo unspecified),–,120,–,–,–,–,–,–
CC1CCCCC1(C)C (stereo unspecified),–,-29,145,–,–,–,–,–
CCCCCCCCCCCCCCCCC=O,–,36,–,–,–,–,–,–
c1ccc2c3c(ccc2c1)-c1cccc2cccc-3c12,–,166,–,–,–,–,–,2.48
C=CCc1ccc(OC(C)=O)c(OC)c1,-2.5,30.5,281,–,–,–,–,–
CCC(O)CCl (stereo unspecified),–,–,141,–,–,–,–,–
O=NN([O-])c1ccccc1.[NH4+],–,164,–,–,–,–,–,–
COc1ccc2[nH]cc(CCN(C)C)c2c1,–,69.5,–,–,–,–,–,–
CCCN(CCC)c1ccccc1,–,–,242,–,–,–,–,–
Cc1ccccc1-c1ccccc1,–,-0.2,256,–,–,–,–,–
Cc1ccc(O)cc1C,–,–,–,–,readily biodegradable,–,–,–
Cc1ncc(CSSCc2cnc(C)c(O)c2CO)c(CO)c1O,–,219,–,–,–,–,–,–
CC1=NN(c2cc(Cl)c(S(=O)(=O)O)cc2Cl)C(=O)C1,–,–,–,–,not readily biodegradable,–,–,–
COC(=O)c1ccc([N+](=O)[O-])cc1,–,95,–,–,–,–,–,–
CC1CCCC(C)(C)C1=O (stereo unspecified),–,-31.8,178,–,–,–,–,–
O=Cc1ccnc2ccccc12,–,51,–,–,–,–,–,–
NNC(=O)c1ccc(N)cc1,–,226,–,–,–,–,–,–
COC(=O)C=CC(=O)OC,–,–,–,–,readily biodegradable,–,–,–

SMILES,log10 vapour pressure (mmHg),melting point [°C],boiling point [°C],log10 Koc (L/kg),ready biodegradability,log10 Henry constant (atm·m³/mol),log10 Koa,log10 biodegradation half-life (days)
O=C1c2ccccc2C(=O)c2c1cc(S(=O)(=O)[O][Na])c(O)c2O,–,–,–,–,not readily biodegradable,–,–,–
O=C1CCCCCCCCC1=O,–,40.5,–,–,–,–,–,–
Cc1ccc(C)c(C)n1,–,–,172,–,–,–,–,–
CSc1nc(NC(C)C)nc(NC(C)C)n1,-5.91,119,–,2.85,–,–,–,–
O=[N+]([O-])c1cccc(F)c1,–,41,199,–,–,–,–,–
COc1cc(S(C)=O)ccc1-c1nc2ncccc2[nH]1 (stereo unspecified),–,204,–,–,–,–,–,–
CCS,2.72,-148,35.1,–,–,-2.34,–,–
Cn1c(=O)ccc2ccccc21,–,74,325,–,–,–,–,–
O=c1ccn([C@@H]2O[C@H](CO)[C@@H](O)[C@@H]2O)c(=O)[nH]1,–,165,–,–,–,–,–,–
CC(C)CCCC(C)(C)O,–,–,173,–,–,–,–,–
OC[C@H]1O[C@@H](n2cnc3c2N=CNC[C@H]3O)C[C@@H]1O,–,220,–,–,–,–,–,–
Oc1c(Cl)cccc1Cl,-1.48,68.5,220,–,not readily biodegradable,–,–,–
CCN(CC)N=O,-0.0655,–,177,–,not readily biodegradable,-5.44,–,–
C[N+]12CCC(CC1)C(OC(=O)C(O)(c1ccccc1)c1ccccc1)C2.[Br-] (stereo unspecified),–,240,–,–,–,–,–,–
CCC(C#N)CC,–,–,146,–,–,–,–,–
CC(C)c1ccc(N)cc1,-1.08,–,225,–,not readily biodegradable,–,–,–
CCCCCCCCCCC(C)O (stereo unspecified),–,19,252,–,–,–,–,–
CC(C)(CO)COC(=O)C(C)(C)CO,–,–,–,–,not readily biodegradable,–,–,–
CC(C)CCC(C)O (stereo unspecified),0.307,–,151,–,–,–,–,–
CCC=C(C)CO,–,–,168,–,–,–,–,–
CCCCCCCCCCCCOCCCCCCCCCCCC,–,–,–,–,readily biodegradable,–,–,–

# Same assay, conditions: fish
SMILES,log10 biotransformation half-life (days),log10 BCF
c1ccc2c(c1)Cc1cc3ccccc3cc1-2,-0.39,–
CC(C)CC1CCCCC1,0.91,–
N#CNC(=N)N,–,0.49
CC1CCC(C(C)C)C(O)C1 (stereo unspecified),-1.19,1.03
Cc1ccc2cc3ccccc3cc2c1,-0.02,–
CCc1cc2ccccc2c2ccccc12,0.29,–
CC1=NN(c2cc(Cl)c(S(=O)(=O)O)cc2Cl)C(=O)C1,–,1.51
Oc1c(Cl)cccc1Cl,–,1.08
